Laboratory results: patent publication US20050245738A1, “Stable bioavailable crystalline form or cefdinir and a process for the preparation thereof” (LUPIN LTD, priority 2004, published 2005)

Experiments:
[1] = Dissolution rate in 0.07 N Hydrochloric acid; assay type: physicochemical
[2] = Accelerated storage stability of cefdinir, Aluminum pouch, 40 ± 2° C., Rh 75 ± 5%; assay type: physicochemical
[3] = accelerated stability tests; cited from earlier work
[4] = 0.07 N Hydrochloric acid, cited from earlier work
[5] = After 30 days at 40 ± 2° C., Rh 75 ± 5%
[6] = After 60 days at 40 ± 2° C., Rh 75 ± 5%
[7] = After 180 days at 40 ± 2° C., Rh 75 ± 5%

Row | IDR: Intrinsic Dissolution Rate [1] [mg/cm^2/min] | Dissolution Profile ([1]; 15 Mins) [mg/cm^2] | Dissolution Profile ([1]; 30 Mins) [mg/cm^2] | Dissolution Profile ([1]; 45 Mins) [mg/cm^2] | Dissolution Profile ([1]; 60 Mins) [mg/cm^2] | Dissolution Profile ([1]; 75 Mins) [mg/cm^2] | Dissolution Profile ([1]; 90 Mins) [mg/cm^2] | Dissolution Profile ([1]; 105 Mins) [mg/cm^2] | Dissolution Profile ([1]; 120 Mins) [mg/cm^2] | SMILES | other results
1 | 0.1831 | 4.15 | 8.26 | 10.31 | 14.66 | 16.29 | 19.47 | 22.17 | 23.01 | C=CC1=C(C(=O)O)N2C(=O)[C@@H](NC(=O)/C(=N\O)c3csc(N)n3)[C@H]2SC1 [(Z)-7-[2-(2-amino-4-thiazolyl)-2-hydroxyiminoacetamido]-3-vinyl-3-cephem-4-carboxylic acid] | dissolution rate compared with reference “Crystal A” and material of U.S. Application No. 2003/0204082 A [1]: superior; thermal stability ([2]; 40° C. (75% Rh)): excellent thermal stability; Assay by HPLC (% on Dry Basis) [2, 5]: 97.92 % on Dry Basis; Water Content (%) [2, 5]: 7.46%; pH (1% Aqueous suspension) [2, 5]: 3.46; Assay by HPLC (% on Dry Basis) [2, 6]: 97.38 % on Dry Basis; Water Content (%) [2, 6]: 7.27%; pH (1% Aqueous suspension) [2, 6]: 3.45; Assay by HPLC (% on Dry Basis) [2, 7]: 96.65 % on Dry Basis; Water Content (%) [2, 7]: 7.60%; pH (1% Aqueous suspension) [2, 7]: 3.55; Assay by HPLC (% on Dry Basis) ([2]; Initial): 98.37 % on Dry Basis; Water Content (%) ([2]; Initial): 7.05%; pH (1% Aqueous suspension) ([2]; Initial): 3.40
2 | 0.1392 | 4.59 | 6.01 | 8.70 | 10.42 | 12.23 | 14.94 | 16.79 | 19.02 | C=CC1=C(C(=O)O)N2C(=O)[C@@H](NC(=O)/C(=N\O)c3csc(N)n3)[C@H]2SC1 [Cefdinir Prepared as per the Method of Dobfar's US Applicati] [reference compound] | stability compared with reference “Crystal A” [3]: at least equal to that of the reference “Crystal A”; solubility compared with reference “Crystal A” ([4]; after the first hour): more soluble; dissolution rate compared with reference “Crystal A” ([4]; initially): initially slower
